Measured values reported in article PMC9851200, “Multiparameter phenotypic screening for endogenous TFEB and TFE3 translocation identifies novel chemical series modulating lysosome function” (Autophagy, 2022).

How the values were obtained:
Type in all cases: binding
[1] = target: kinases (KINOMEscan panel) (Homo sapiens, UniProt P53778)
[2] = target: kinases (KINOMEscan panel) (Homo sapiens, UniProt Q9H4B4); settings: kinase PLK3; NEW KINOMEscan
[3] = target: T1, kinases (KINOMEscan panel) (Homo sapiens, UniProt P25098); settings: NEW KINOMEscan
T1 sequence (P25098 1-689): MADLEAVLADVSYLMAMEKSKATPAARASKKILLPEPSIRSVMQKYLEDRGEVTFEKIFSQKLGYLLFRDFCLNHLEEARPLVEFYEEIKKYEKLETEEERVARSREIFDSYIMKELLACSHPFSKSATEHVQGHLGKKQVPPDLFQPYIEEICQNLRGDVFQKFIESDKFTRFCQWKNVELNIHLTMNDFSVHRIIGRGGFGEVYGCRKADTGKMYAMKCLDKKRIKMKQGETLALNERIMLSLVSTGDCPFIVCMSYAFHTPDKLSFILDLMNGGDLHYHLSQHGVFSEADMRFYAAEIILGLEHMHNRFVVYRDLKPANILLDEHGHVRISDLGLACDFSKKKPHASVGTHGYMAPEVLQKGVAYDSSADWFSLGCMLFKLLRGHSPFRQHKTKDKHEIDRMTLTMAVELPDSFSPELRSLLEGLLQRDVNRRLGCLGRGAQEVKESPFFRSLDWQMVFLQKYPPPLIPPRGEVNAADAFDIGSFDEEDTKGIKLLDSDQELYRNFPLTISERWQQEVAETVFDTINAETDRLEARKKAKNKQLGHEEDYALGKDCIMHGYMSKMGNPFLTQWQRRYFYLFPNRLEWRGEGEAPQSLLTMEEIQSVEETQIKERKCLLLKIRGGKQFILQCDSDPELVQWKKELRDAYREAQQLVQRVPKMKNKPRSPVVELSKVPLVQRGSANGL

[4] = target: kinases (KINOMEscan panel) (Homo sapiens, UniProt P19525); settings: kinase ElF2AK2; NEW KINOMEscan
[5] = target: kinases (KINOMEscan panel) (Homo sapiens, UniProt Q9Y4K4); settings: kinase MAP4K5; NEW KINOMEscan
[6] = target: kinases (KINOMEscan panel) (Homo sapiens, UniProt Q96SB4); settings: kinase SRPK1; NEW KINOMEscan
[7] = target: T2, kinases (KINOMEscan panel) (Homo sapiens, UniProt Q06418); settings: NEW KINOMEscan
T2 sequence (Q06418 41-890): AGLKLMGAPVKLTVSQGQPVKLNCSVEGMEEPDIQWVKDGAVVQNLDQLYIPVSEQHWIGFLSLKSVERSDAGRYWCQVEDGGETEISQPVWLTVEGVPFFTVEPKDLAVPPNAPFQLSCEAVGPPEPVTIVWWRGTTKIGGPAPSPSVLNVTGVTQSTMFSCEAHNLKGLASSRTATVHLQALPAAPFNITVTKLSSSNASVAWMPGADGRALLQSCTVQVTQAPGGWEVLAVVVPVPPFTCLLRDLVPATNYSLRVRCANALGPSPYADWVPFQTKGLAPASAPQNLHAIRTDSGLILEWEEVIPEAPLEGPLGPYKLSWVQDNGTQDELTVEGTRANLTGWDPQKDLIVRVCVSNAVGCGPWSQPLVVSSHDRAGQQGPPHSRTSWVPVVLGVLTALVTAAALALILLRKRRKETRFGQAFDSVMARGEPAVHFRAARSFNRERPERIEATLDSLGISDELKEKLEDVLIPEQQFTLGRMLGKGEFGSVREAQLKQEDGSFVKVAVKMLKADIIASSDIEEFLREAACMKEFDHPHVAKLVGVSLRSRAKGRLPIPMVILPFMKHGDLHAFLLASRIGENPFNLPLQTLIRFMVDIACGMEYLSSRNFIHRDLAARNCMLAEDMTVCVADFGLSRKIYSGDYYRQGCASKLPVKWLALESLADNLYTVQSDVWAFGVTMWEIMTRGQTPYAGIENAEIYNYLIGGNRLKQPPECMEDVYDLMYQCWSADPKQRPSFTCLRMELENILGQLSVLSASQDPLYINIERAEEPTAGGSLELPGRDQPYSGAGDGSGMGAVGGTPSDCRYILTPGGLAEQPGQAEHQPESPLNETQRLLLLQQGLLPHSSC

[8] = target: kinases (KINOMEscan panel) (Homo sapiens, UniProt P00519, Q252H); settings: NEW KINOMEscan; for KINOMEscan ABL1(Q252H)-nonphosphorylated: kinase ABL1(Q252H)-nonphosphorylated; for KINOMEscan ABL1(Q252H)-phosphorylated: kinase ABL1(Q252H)-phosphorylated
[9] = target: kinases (KINOMEscan panel) (Homo sapiens, UniProt Q9H0K1); settings: kinase SIK2; NEW KINOMEscan
[10] = target: T3, kinases (KINOMEscan panel) (Homo sapiens, UniProt Q9C098); settings: kinase DCLK3; NEW KINOMEscan
T3 sequence (Q9C098 1-648): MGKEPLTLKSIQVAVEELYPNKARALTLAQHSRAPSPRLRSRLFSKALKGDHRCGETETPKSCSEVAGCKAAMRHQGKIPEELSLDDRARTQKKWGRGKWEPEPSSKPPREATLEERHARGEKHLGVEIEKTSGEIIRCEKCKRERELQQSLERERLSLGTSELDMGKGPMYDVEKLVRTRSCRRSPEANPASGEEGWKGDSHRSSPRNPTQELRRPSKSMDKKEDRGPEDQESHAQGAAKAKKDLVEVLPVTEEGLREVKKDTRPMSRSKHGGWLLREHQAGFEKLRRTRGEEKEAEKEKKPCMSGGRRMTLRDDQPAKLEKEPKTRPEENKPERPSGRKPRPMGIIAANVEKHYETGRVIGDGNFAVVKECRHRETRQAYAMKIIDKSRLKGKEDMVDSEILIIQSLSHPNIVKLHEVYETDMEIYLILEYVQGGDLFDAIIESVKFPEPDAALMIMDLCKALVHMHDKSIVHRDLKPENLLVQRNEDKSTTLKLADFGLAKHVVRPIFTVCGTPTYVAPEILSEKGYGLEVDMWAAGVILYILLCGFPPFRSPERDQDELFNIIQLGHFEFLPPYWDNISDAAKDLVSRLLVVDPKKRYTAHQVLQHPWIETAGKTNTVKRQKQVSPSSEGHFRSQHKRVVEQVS

[11] = target: kinases (KINOMEscan panel) (Homo sapiens, UniProt Q07912); settings: TNK2; NEW KINOMEscan
[12] = target: kinases (KINOMEscan panel) (Homo sapiens, UniProt P00533, L858R/T790M); settings: NEW KINOMEscan

kinases (KINOMEscan panel) (Homo sapiens, UniProt P19525), sequence (P19525 whole entry): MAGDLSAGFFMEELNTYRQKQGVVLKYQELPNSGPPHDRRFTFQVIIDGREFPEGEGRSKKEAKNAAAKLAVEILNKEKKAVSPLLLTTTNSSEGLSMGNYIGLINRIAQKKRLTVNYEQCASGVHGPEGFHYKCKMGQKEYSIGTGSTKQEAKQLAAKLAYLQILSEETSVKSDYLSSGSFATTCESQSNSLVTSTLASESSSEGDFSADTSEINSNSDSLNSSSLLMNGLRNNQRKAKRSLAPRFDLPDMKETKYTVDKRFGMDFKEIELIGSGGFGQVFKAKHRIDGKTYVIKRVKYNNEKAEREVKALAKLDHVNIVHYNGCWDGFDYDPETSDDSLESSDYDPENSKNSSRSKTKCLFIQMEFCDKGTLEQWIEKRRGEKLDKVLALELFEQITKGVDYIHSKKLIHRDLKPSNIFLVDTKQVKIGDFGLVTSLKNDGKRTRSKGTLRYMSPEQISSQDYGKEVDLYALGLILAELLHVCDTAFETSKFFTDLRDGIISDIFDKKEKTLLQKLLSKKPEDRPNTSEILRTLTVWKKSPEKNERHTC
kinases (KINOMEscan panel) (Homo sapiens, UniProt Q07912), sequence (Q07912 whole entry): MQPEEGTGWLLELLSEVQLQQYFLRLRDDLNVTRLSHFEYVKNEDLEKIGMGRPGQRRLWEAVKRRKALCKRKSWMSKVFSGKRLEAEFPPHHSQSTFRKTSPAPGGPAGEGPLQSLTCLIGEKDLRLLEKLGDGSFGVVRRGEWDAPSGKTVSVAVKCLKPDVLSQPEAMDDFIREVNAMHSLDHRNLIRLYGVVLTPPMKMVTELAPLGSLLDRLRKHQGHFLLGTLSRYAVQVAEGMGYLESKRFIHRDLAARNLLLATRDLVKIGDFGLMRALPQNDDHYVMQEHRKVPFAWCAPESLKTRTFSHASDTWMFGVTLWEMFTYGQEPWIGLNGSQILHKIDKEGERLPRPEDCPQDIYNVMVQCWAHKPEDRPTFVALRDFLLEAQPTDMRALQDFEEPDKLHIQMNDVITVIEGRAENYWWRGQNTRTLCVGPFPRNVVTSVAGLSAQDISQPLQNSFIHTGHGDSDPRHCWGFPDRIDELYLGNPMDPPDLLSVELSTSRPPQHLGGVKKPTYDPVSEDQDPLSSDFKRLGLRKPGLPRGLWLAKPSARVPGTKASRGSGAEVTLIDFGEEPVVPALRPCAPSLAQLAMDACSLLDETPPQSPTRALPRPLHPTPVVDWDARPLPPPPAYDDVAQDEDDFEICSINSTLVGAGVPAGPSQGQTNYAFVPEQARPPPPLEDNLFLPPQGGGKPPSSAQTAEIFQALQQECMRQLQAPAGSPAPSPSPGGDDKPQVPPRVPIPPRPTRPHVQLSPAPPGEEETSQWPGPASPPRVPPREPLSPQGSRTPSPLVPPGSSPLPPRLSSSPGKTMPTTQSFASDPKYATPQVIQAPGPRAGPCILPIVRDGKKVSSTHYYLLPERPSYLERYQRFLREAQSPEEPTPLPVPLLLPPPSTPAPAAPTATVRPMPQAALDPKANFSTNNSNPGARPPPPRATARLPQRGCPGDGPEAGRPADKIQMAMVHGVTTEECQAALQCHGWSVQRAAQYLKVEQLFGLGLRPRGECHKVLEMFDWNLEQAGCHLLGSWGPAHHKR
kinases (KINOMEscan panel) (Homo sapiens, UniProt P53778), sequence (P53778 whole entry): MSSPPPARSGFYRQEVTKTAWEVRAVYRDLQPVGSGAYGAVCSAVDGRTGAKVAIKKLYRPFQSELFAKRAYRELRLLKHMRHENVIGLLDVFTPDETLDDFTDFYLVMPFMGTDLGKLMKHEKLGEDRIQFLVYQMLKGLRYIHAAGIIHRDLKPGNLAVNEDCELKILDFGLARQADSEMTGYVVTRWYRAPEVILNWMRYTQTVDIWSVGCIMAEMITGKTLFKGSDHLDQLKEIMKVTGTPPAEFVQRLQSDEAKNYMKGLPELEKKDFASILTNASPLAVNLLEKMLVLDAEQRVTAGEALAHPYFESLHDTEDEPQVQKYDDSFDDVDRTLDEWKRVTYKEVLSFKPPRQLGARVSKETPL
kinases (KINOMEscan panel) (Homo sapiens, UniProt Q9Y4K4), sequence (Q9Y4K4 whole entry): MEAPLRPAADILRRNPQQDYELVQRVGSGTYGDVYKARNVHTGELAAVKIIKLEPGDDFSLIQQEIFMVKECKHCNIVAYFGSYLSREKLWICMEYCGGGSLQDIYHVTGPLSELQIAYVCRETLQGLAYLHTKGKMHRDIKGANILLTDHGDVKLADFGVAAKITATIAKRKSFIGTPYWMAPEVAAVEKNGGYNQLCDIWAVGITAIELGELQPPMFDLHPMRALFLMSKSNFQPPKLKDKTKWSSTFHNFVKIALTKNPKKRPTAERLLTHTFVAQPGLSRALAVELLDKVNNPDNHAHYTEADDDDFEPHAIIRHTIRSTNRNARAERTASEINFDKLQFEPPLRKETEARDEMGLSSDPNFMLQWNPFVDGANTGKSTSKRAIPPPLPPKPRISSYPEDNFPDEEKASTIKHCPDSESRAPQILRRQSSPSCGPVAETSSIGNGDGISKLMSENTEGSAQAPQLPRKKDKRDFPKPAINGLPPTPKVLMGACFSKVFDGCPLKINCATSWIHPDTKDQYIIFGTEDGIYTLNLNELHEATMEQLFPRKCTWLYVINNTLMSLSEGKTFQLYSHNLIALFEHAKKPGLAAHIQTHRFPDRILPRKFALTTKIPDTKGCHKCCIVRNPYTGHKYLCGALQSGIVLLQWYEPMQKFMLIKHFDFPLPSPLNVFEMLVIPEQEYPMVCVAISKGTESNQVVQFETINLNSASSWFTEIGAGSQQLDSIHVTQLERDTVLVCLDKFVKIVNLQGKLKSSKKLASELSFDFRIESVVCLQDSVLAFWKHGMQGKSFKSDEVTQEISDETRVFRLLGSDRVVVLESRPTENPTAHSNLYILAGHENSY
kinases (KINOMEscan panel) (Homo sapiens, UniProt Q9H4B4), sequence (Q9H4B4 whole entry): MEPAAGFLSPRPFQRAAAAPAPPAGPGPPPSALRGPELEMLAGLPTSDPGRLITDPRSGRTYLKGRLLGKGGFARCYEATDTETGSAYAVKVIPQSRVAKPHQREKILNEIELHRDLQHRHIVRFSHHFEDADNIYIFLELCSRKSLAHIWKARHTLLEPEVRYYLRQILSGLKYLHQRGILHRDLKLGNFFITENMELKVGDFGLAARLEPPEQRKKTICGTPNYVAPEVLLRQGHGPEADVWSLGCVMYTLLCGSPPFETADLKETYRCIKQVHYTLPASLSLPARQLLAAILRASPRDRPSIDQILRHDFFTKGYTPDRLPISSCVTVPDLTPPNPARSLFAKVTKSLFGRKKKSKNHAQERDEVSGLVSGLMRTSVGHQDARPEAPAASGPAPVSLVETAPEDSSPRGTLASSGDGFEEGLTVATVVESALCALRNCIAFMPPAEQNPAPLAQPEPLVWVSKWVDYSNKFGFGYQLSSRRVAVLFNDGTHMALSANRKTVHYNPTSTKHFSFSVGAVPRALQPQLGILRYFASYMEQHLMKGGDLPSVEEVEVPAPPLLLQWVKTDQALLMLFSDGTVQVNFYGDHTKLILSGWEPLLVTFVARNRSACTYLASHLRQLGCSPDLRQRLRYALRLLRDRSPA
kinases (KINOMEscan panel) (Homo sapiens, UniProt Q9H0K1), sequence (Q9H0K1 whole entry): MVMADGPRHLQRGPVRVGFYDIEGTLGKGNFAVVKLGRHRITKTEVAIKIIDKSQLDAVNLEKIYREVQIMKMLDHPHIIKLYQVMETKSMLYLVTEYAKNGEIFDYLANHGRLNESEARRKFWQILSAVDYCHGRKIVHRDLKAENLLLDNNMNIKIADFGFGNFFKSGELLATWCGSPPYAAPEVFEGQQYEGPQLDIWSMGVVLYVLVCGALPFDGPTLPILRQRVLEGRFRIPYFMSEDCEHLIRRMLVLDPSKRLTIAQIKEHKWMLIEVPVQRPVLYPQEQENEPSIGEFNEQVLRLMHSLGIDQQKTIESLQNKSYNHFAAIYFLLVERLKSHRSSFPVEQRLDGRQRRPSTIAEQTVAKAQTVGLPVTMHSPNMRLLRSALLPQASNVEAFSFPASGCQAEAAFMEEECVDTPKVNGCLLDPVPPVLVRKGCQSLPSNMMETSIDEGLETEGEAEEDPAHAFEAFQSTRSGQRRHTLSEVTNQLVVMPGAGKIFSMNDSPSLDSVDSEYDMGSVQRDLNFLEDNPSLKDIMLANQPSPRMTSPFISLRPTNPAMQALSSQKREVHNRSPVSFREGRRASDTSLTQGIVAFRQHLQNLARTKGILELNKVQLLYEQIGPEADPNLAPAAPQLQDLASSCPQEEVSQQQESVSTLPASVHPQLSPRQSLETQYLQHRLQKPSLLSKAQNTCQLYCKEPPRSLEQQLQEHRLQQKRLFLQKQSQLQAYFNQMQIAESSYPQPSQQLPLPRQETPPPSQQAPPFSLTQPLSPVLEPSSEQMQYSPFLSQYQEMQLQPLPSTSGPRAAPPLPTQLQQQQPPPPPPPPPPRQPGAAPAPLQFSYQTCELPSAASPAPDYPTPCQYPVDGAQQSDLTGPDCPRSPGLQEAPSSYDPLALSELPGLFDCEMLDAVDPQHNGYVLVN
kinases (KINOMEscan panel) (Homo sapiens, UniProt Q96SB4), sequence (Q96SB4 whole entry): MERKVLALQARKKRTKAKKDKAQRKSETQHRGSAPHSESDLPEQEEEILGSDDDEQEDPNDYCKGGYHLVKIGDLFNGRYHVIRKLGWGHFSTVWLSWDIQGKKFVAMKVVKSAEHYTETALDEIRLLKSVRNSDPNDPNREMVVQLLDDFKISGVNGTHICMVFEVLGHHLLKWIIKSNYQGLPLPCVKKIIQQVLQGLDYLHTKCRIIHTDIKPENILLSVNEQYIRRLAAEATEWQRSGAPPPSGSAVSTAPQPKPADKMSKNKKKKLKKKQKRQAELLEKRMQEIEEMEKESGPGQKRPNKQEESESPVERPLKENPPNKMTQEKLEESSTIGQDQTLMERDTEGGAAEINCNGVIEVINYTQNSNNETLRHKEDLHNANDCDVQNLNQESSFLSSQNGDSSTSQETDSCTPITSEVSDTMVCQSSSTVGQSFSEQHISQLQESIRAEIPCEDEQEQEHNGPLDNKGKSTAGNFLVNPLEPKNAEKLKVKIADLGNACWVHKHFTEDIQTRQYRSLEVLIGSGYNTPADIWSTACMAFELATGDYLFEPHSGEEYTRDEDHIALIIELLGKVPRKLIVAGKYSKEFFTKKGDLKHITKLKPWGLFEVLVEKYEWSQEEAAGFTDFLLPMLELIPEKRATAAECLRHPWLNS

Compound | KINOMEscan MAPK12/p38-gamma [1] | KINOMEscan PLK3 [2] | KINOMEscan GRK2 [3] | KINOMEscan ElF2AK2 [4] | KINOMEscan MAP4K5 [5] | KINOMEscan SRPK1 [6] | KINOMEscan TYRO3 [7] | KINOMEscan ABL1(Q252H)-nonphosphorylated [8] | KINOMEscan ABL1(Q252H)-phosphorylated [8] | KINOMEscan SIK2 [9] | KINOMEscan DCLK3 [10] | KINOMEscan TNK2 [11] | KINOMEscan EGFR(L858R,T790M) [12]
Cc1cccc(-c2nc(Nc3ccc4nn(C)cc4c3)c3ccccc3n2)n1 [NK167] | 43 | 16 | 0 | 19 | 0 | 2 | 4 | 0 | 0 | 0 | 10 | 0 | 0
Cc1cccc(-c2nc(N(C)c3ccc4ncsc4c3)c3ccccc3n2)n1 [NK-161] | 27 | 13 | 9 | 7 | 0 | 7 | 21 | 0 | 0 | 0 | 14 | 0 | 10
